Assay [1] has as its system Trametes versicolor laccase. Nature of the assay: Laccase inhibitor evaluation: rate of ABTS^−2 oxidation at varied inhibitor and substrate concentrations (1/V versus [I] plots). In kind it is biochemical. How it is done:
High potential quinones/quinols were screened to identify those with characteristics that would be suitable for use as an inhibitor of laccase, to be used in an activity switch.
Compounds were evaluated by varying the concentrations of inhibitor and substrate (ABTS^−2) and measuring under each condition the rate of ABTS^−2 oxidation. […] Tetrachloro-o-quinol and tetrafluoro-o-quinol, shown in Diagram I, had Kds, of 7-9 μM and 2.5 μM, respectively, as determined from the data in FIG. 12.
After the addition of sodium cyanoborohydride (6 mg, 100 nmol), the reaction mixture was stirred for an additional 2 hours, washed with water (2×0.5 mL) and dried on a rotavap.

Assay [2] relates to Trametes versicolor laccase. Put plainly: Laccase assay: ABTS^−2 oxidation followed by absorbance change at 436 nm, with and without NaF. The assay is classed as biochemical. To be noted: 1 mM NaF; 5 mM ABTS^−2 in 50 mM Glycine pH 3.0.
The subject of assay [3] is laccase Type I copper center. Nature of the assay: Laccase 600 nm absorbance peak on inhibitor binding. On the set-up: species or system Trametes versicolor. To be noted: charge-transfer band of Type I copper center. From the text: This conclusion was strengthened by the observation that the binding of tetrachloro-o-quinol to laccase caused a decrease in the amplitude of the laccase 600 nm absorbance peak, dominated by a charge-transfer band involving the Type I copper center and its cysteinyl ligand.

The mark [4] stands for this setting: inhibitor of laccase, substrate ABTS^−2, read-out: Kd (dissociation constant of the inhibitor, −Ki at intersection point).

Where a name gives a salt, the structure may show the parent alone. Read-outs that look alike come from different tables or passages of the source.

As usually defined, the Kd is the free concentration of one partner at which half of the binding sites on the other are occupied at equilibrium, for simple one-to-one binding. With `CCn1c(=NN=c2sc3cc(S(=O)(=O)O)ccc3n2CC)sc2cc(S(=O)(=O)O)ccc21` [ABTS^−2, 2,2′-azino-bis(3-ethylbenz-thiazoline-6-sulfonate) diammonium salt, reference compound], the equilibrium dissociation constant (Kd) in assay [1] (substrate binding to laccase, read-out: dissociation constant, Kd of the laccase substrate) lay within 120 to 240 µM. Regarding `[F-].[Na+]` [NaF], in assay [2], the “inhibition of laccase activity” value is recorded as 95%. As for `Oc1c(O)c(Cl)c(Cl)c(Cl)c1Cl` [Tetrachloro-o-quinol], the equilibrium dissociation constant (Kd) in assay [1] (setting [4]) lay in the range of 7 to 9 µM. For the same molecule, the “activity as laccase inhibitor” value in assay [1] (substrate ABTS^−2) was “effective inhibitor”. In assay [3], the “amplitude of the laccase 600 nm absorbance peak on binding” value is on record as “decrease”. Consider `Oc1c(Cl)c(Cl)c(O)c(Cl)c1Cl` [tetrachloro-p-quinol, reference compound], for which the “activity as laccase inhibitor” value in assay [1] (substrate ABTS^−2) is “inactive as an inhibitor”. As to `Oc1c(O)c(F)c(F)c(F)c1F` [tetrafluoro-o-quinol], the Kd in assay [1] (setting [4]) was found to be 2.5 µM.

For the origin of these results see patent US7638036B2, “Redox potential mediated carbon nanotubes biosensing in homogeneous format” (E. I. du Pont de Nemours and Company, priority 2004, dated 2009).
